In US6664231B1, “Anti-fungal peptides” (priority 1993, dated 2003):
Square brackets hold non-standard residues; d marks the D form. Peptide text beside a SMILES is read from it. Phe(4-NH2) = Nc1ccc(C[C@H](N)C(=O)O)cc1; 1Nal = N[C@@H](Cc1cccc2ccccc12)C(=O)O; 2Nal = N[C@@H](Cc1ccc2ccccc2c1)C(=O)O; d1Nal = N[C@H](Cc1cccc2ccccc12)C(=O)O; d2Nal = N[C@H](Cc1ccc2ccccc2c1)C(=O)O; Cha = N[C@@H](CC1CCCCC1)C(=O)O

System: C. albicans (CA-1, Strain SLU-1)
Test: Radial diffusion assay
Type: cell-based, Candida albicans
Settings: for Plate Assay (nmol), pure peptide activity: HPLC-purified peptide; for Plate Assay (nmol), pure peptide activity / Plate Assay (nmol), crude peptide activity: nanomoles required to achieve a net 30 mm^2 zone (log titration curve); for C. albicans pmol/30 mm^2 zone: pmoles of peptide added to well to achieve a 30 mm^2 zone, PROBIT analysis, crude or purified (P′) peptide
Procedure: In the radial diffusion assay procedures, the CA-1 cultures and peptide solutions were prepared as in the broth assay procedure described above. Ten mL of molten underlayer agarose comprising 3% Sabouraud Dextrose broth, 1% agarose (Pharmacia, Piscataway, N.J.), 0.02% Tween 20, and 10 mM sodium phosphate at pH 7.4, was added to polystyrene tubes and maintained in a 56° C. water bath until the addition of yeast. Tubes were cooled to approximately 45° C., yeast were added to give a final concentration of 1×10^6 CFU/mL, and the tubes were mixed again by inverting. The contents were poured into level square petri dishes and distributed evenly. […] A series of wells were punched into the hardened agarose using a sterile 3 mm punch attached to a vacuum apparatus.
Peptides to be assayed were 2-fold serially diluted in Dulbecco's PBS (D-PBS) starting from a concentration of approximately 1 mg/mL. Five μL of each dilution were added to each well and the plates were incubated at 37° C. for 3 hours. An overlayer of 10 mL of molten agarose comprising 6% Sabouraud Dextrose broth, 1% agarose, and 10 mM sodium phosphate, pH 7.4, (at approximately 45° C.) was then added and plates were incubated overnight at 37° C. Following this overnight incubation, a dilute Coomassie solution was poured into the plates and allowed to stain for 24 hours.
Clear zones of growth inhibition around each well were measured with calipers. The actual area of growth inhibition (mm^2) was calculated by subtracting the area of the well. Table 1 below sets out the results of the radial diffusion assays for tested peptides in terms of the number of picomoles (pmol) of peptide required to establish a 30 mm^2 area of growth inhibition calculated by PROBIT analysis (e.g., calculated from regression of the linear portion of log-concentration dose-response curve, log pmol/well vs. net area of inhibition).

SMILES: CC[C@H](C)[C@H](NC(=O)[C@H](CC(C)C)NC(=O)[C@H](Cc1c[nH]c2ccccc12)NC(=O)[C@@H](N)CCCCN)C(=O)N[C@@H](CCC(N)=O)C(=O)N[C@@H](CC(C)C)C(=O)N[C@@H](Cc1ccccc1)C(=O)N[C@@H](Cc1c[nH]cn1)C(=O)N[C@@H](CCCCN)C(=O)N[C@@H](CCCCN)C(N)=O [Peptide 293]
- Plate Assay (nmol), pure peptide activity: 0.215 nmol
- Plate Assay (nmol), crude peptide activity: 1.156 nmol

SMILES: CC[C@H](C)[C@H](NC(=O)[C@H](CC(C)C)NC(=O)[C@H](Cc1c[nH]c2ccccc12)NC(=O)[C@@H](N)CCCCN)C(=O)N[C@@H](CCC(N)=O)C(=O)N[C@@H](CC(C)C)C(=O)N[C@@H](Cc1ccccc1)C(=O)N[C@@H](Cc1c[nH]cn1)C(=O)N[C@@H](CCCCN)C(N)=O [Peptide 297]
- Plate Assay (nmol), pure peptide activity: 0.564 nmol
- Plate Assay (nmol), crude peptide activity: 1.817 nmol

SMILES: CC[C@H](C)[C@H](NC(=O)[C@H](CC(C)C)NC(=O)[C@@H](N)Cc1c[nH]c2ccccc12)C(=O)N[C@@H](CCC(N)=O)C(=O)N[C@@H](CC(C)C)C(=O)N[C@@H](Cc1ccccc1)C(=O)N[C@@H](Cc1c[nH]cn1)C(=O)N[C@@H](CCCCN)C(=O)N[C@@H](CCCCN)C(N)=O [Peptide 298]
- Plate Assay (nmol), pure peptide activity: 1.106 nmol
- Plate Assay (nmol), crude peptide activity: 2.628 nmol

SMILES: CC[C@H](C)[C@H](NC(=O)[C@H](CC(C)C)NC(=O)[C@@H](N)Cc1c[nH]c2ccccc12)C(=O)N[C@@H](CCC(N)=O)C(=O)N[C@@H](CC(C)C)C(=O)N[C@@H](Cc1ccccc1)C(=O)N[C@@H](Cc1c[nH]cn1)C(=O)N[C@@H](CCCCN)C(N)=O [Peptide 303]
- Plate Assay (nmol), pure peptide activity: 1.306 nmol
- Plate Assay (nmol), crude peptide activity: >4.694 nmol

SMILES: CC[C@H](C)[C@H](NC(=O)[C@H](CC(C)C)NC(=O)[C@H](Cc1cccc2ccccc12)NC(=O)CNC(=O)[C@@H](NC(=O)[C@H](CCCCN)NC(=O)[C@H](CO)NC(=O)[C@@H](N)CCCCN)C(C)C)C(=O)N[C@@H](CCC(N)=O)C(=O)N[C@@H](CC(C)C)C(=O)N[C@@H](Cc1ccccc1)C(=O)N[C@@H](Cc1c[nH]cn1)C(=O)N[C@@H](CCCCN)C(=O)N[C@@H](CCCCN)C(N)=O [XMP.83] (H-KSKVG[1Nal]LIQLFHKK-NH2)
- C. albicans pmol/30 mm^2 zone: 1804 pmol/30 mm^2 zone

SMILES: CC[C@H](C)[C@H](NC(=O)[C@H](CC(C)C)NC(=O)[C@H](Cc1c[nH]c2ccccc12)NC(=O)CNC(=O)[C@@H](NC(=O)[C@H](CCCCN)NC(=O)[C@H](CO)NC(=O)[C@@H](N)CCCCN)C(C)C)C(=O)N[C@@H](CCC(N)=O)C(=O)N[C@@H](CC(C)C)C(=O)N[C@@H](Cc1cccc2ccccc12)C(=O)N[C@@H](Cc1c[nH]cn1)C(=O)N[C@@H](CCCCN)C(=O)N[C@@H](CCCCN)C(N)=O [XMP.109] (H-KSKVGWLIQL[1Nal]HKK-NH2)
- C. albicans pmol/30 mm^2 zone: >2839 pmol/30 mm^2 zone

SMILES: CC[C@H](C)[C@H](NC(=O)[C@H](CC(C)C)NC(=O)[C@H](Cc1c[nH]c2ccccc12)NC(=O)CNC(=O)[C@@H](NC(=O)[C@H](CCCCN)NC(=O)[C@H](CO)NC(=O)[C@@H](N)CCCCN)C(C)C)C(=O)N[C@@H](CCC(N)=O)C(=O)N[C@@H](CC(C)C)C(=O)N[C@@H](Cc1ccccc1)C(=O)N[C@@H](Cc1cccc2ccccc12)C(=O)N[C@@H](CCCCN)C(=O)N[C@@H](CCCCN)C(N)=O [XMP.110] (H-KSKVGWLIQLF[1Nal]KK-NH2)
- C. albicans pmol/30 mm^2 zone: >2922 pmol/30 mm^2 zone

SMILES: CC[C@H](C)[C@H](NC(=O)[C@H](CC(C)C)NC(=O)[C@H](Cc1c[nH]c2ccccc12)NC(=O)CNC(=O)[C@@H](NC(=O)[C@H](CCCCN)NC(=O)[C@H](CO)NC(=O)[C@@H](N)CCCCN)C(C)C)C(=O)N[C@@H](CCC(N)=O)C(=O)N[C@@H](CC(C)C)C(=O)N[C@@H](Cc1ccccc1)C(=O)N[C@@H](Cc1c[nH]cn1)C(=O)N[C@@H](CCCCN)C(=O)N[C@@H](Cc1cccc2ccccc12)C(N)=O [XMP.111] (H-KSKVGWLIQLFHK[1Nal]-NH2)
- C. albicans pmol/30 mm^2 zone: >2809 pmol/30 mm^2 zone

SMILES: CC[C@H](C)[C@H](NC(=O)[C@H](CC(C)C)NC(=O)[C@H](Cc1cccc2ccccc12)NC(=O)[C@H](CCCCN)NC(=O)[C@@H](NC(=O)[C@H](CCCCN)NC(=O)[C@H](CO)NC(=O)[C@@H](N)CCCCN)C(C)C)C(=O)N[C@@H](CCC(N)=O)C(=O)N[C@@H](CC(C)C)C(=O)N[C@@H](Cc1ccccc1)C(=O)N[C@@H](Cc1c[nH]cn1)C(=O)N[C@@H](CCCCN)C(=O)N[C@@H](CCCCN)C(N)=O [XMP.116] (H-KSKVK[1Nal]LIQLFHKK-NH2)
- C. albicans pmol/30 mm^2 zone: 670 pmol/30 mm^2 zone

SMILES: CC[C@H](C)[C@H](NC(=O)[C@H](CC(C)C)NC(=O)[C@H](Cc1c[nH]c2ccccc12)NC(=O)CNC(=O)[C@@H](NC(=O)[C@H](CCCCN)NC(=O)[C@H](CO)NC(=O)[C@@H](N)CCCCN)C(C)C)C(=O)N[C@@H](Cc1ccc(N)cc1)C(=O)N[C@@H](CC(C)C)C(=O)N[C@@H](Cc1ccccc1)C(=O)N[C@@H](Cc1c[nH]cn1)C(=O)N[C@@H](CCCCN)C(=O)N[C@@H](CCCCN)C(N)=O [XMP.123] (H-KSKVGWLI[Phe(4-NH2)]LFHKK-NH2)
- C. albicans pmol/30 mm^2 zone: 1721 pmol/30 mm^2 zone

SMILES: CC[C@H](C)[C@H](NC(=O)[C@H](CC(C)C)NC(=O)[C@@H](Cc1c[nH]c2ccccc12)NC(=O)CNC(=O)[C@@H](NC(=O)[C@H](CCCCN)NC(=O)[C@H](CO)NC(=O)[C@@H](N)CCCCN)C(C)C)C(=O)N[C@@H](CCC(N)=O)C(=O)N[C@@H](CC(C)C)C(=O)N[C@@H](Cc1ccccc1)C(=O)N[C@@H](Cc1c[nH]cn1)C(=O)N[C@@H](CCCCN)C(=O)N[C@@H](CCCCN)C(N)=O [XMP.126] (H-KSKVG[dW]LIQLFHKK-NH2)
- C. albicans pmol/30 mm^2 zone: 1404 pmol/30 mm^2 zone

SMILES: CC[C@H](C)[C@H](NC(=O)[C@H](CC(C)C)NC(=O)[C@@H](Cc1ccccc1)NC(=O)CNC(=O)[C@@H](NC(=O)[C@H](CCCCN)NC(=O)[C@H](CO)NC(=O)[C@@H](N)CCCCN)C(C)C)C(=O)N[C@@H](CCC(N)=O)C(=O)N[C@@H](CC(C)C)C(=O)N[C@@H](Cc1ccccc1)C(=O)N[C@@H](Cc1c[nH]cn1)C(=O)N[C@@H](CCCCN)C(=O)N[C@@H](CCCCN)C(N)=O [XMP.128]
- C. albicans pmol/30 mm^2 zone: 1179 pmol/30 mm^2 zone

SMILES: CC[C@H](C)[C@H](NC(=O)[C@H](CC(C)C)NC(=O)[C@@H](Cc1cccc2ccccc12)NC(=O)CNC(=O)[C@@H](NC(=O)[C@H](CCCCN)NC(=O)[C@H](CO)NC(=O)[C@@H](N)CCCCN)C(C)C)C(=O)N[C@@H](CCC(N)=O)C(=O)N[C@@H](CC(C)C)C(=O)N[C@@H](Cc1ccccc1)C(=O)N[C@@H](Cc1c[nH]cn1)C(=O)N[C@@H](CCCCN)C(=O)N[C@@H](CCCCN)C(N)=O [XMP.129] (H-KSKVG[d1Nal]LIQLFHKK-NH2)
- C. albicans pmol/30 mm^2 zone: 2117 pmol/30 mm^2 zone

SMILES: CC[C@H](C)[C@H](NC(=O)[C@H](CC(C)C)NC(=O)[C@H](Cc1ccc2ccccc2c1)NC(=O)CNC(=O)[C@@H](NC(=O)[C@H](CCCCN)NC(=O)[C@H](CO)NC(=O)[C@@H](N)CCCCN)C(C)C)C(=O)N[C@@H](CCC(N)=O)C(=O)N[C@@H](CC(C)C)C(=O)N[C@@H](Cc1ccccc1)C(=O)N[C@@H](Cc1c[nH]cn1)C(=O)N[C@@H](CCCCN)C(=O)N[C@@H](CCCCN)C(N)=O [XMP.130] (H-KSKVG[2Nal]LIQLFHKK-NH2)
- C. albicans pmol/30 mm^2 zone: 1159 pmol/30 mm^2 zone

SMILES: CC[C@H](C)[C@H](NC(=O)[C@H](CC(C)C)NC(=O)[C@@H](Cc1ccc2ccccc2c1)NC(=O)CNC(=O)[C@@H](NC(=O)[C@H](CCCCN)NC(=O)[C@H](CO)NC(=O)[C@@H](N)CCCCN)C(C)C)C(=O)N[C@@H](CCC(N)=O)C(=O)N[C@@H](CC(C)C)C(=O)N[C@@H](Cc1ccccc1)C(=O)N[C@@H](Cc1c[nH]cn1)C(=O)N[C@@H](CCCCN)C(=O)N[C@@H](CCCCN)C(N)=O [XMP.131] (H-KSKVG[d2Nal]LIQLFHKK-NH2)
- C. albicans pmol/30 mm^2 zone: 2493 pmol/30 mm^2 zone

SMILES: CC[C@H](C)[C@H](NC(=O)[C@H](CC(C)C)NC(=O)[C@H](Cc1c[nH]c2ccccc12)NC(=O)[C@H](Cc1ccc(N)cc1)NC(=O)[C@@H](NC(=O)[C@H](CCCCN)NC(=O)[C@H](CO)NC(=O)[C@@H](N)CCCCN)C(C)C)C(=O)N[C@@H](CCC(N)=O)C(=O)N[C@@H](CC(C)C)C(=O)N[C@@H](Cc1ccccc1)C(=O)N[C@@H](Cc1c[nH]cn1)C(=O)N[C@@H](CCCCN)C(=O)N[C@@H](CCCCN)C(N)=O [XMP.134]
- C. albicans pmol/30 mm^2 zone: 1255 pmol/30 mm^2 zone

SMILES: CC[C@H](C)[C@H](NC(=O)[C@H](CC(C)C)NC(=O)[C@H](CC1CCCCC1)NC(=O)CNC(=O)[C@@H](NC(=O)[C@H](CCCCN)NC(=O)[C@H](CO)NC(=O)[C@@H](N)CCCCN)C(C)C)C(=O)N[C@@H](CCC(N)=O)C(=O)N[C@@H](CC(C)C)C(=O)N[C@@H](Cc1ccccc1)C(=O)N[C@@H](Cc1c[nH]cn1)C(=O)N[C@@H](CCCCN)C(=O)N[C@@H](CCCCN)C(N)=O [XMP.144] (H-KSKVG[Cha]LIQLFHKK-NH2)
- C. albicans pmol/30 mm^2 zone: 695 pmol/30 mm^2 zone
